Test results reported in ChEMBL document CHEMBL4393662, “Structural optimization on a virtual screening hit of smoothened receptor” (Eur J Med Chem, 2019).
pIC50: −log10 of the molar value. Activity calls are given as the source filed them. The rule behind the calls is not given here.

Legend:
[1] = target: Protein smoothened (Mus musculus, UniProt P56726); assay: Antagonist activity at Smo receptor in mouse NIH/3T3 cells harboring GRE-Luc assessed as inhibition of SAG-induced Hh signaling pathway preincubated with cells followed by SAG addition measured after 48 hrs by luciferase reporter gene assay; type: cell-based
[2] = tested on: HEK293; assay: Inhibition of Wnt pathway in HEK293 cells harbouring TCF-luciferase cocultured with LWnt3A cells by Topflash reporter gene assay; type: cell-based; details: Homo sapiens
[3] = target: Protein smoothened (Homo sapiens, UniProt Q99835); assay: Displacement of BODIPY-Cyclopamine from human HA-tagged Smo receptor expressed in human U2OS cells at 1 to 10000 nM incubated for 2 hrs by DAPI staining based fluorescence microscopic method; type: cell-based
[4] = target: T1, CYP1A2 (Homo sapiens, UniProt P05177); assay: Inhibition of CYP1A2 (unknown origin) at 10 uM relative to control; type: ADME
T1 sequence (P05177 whole entry): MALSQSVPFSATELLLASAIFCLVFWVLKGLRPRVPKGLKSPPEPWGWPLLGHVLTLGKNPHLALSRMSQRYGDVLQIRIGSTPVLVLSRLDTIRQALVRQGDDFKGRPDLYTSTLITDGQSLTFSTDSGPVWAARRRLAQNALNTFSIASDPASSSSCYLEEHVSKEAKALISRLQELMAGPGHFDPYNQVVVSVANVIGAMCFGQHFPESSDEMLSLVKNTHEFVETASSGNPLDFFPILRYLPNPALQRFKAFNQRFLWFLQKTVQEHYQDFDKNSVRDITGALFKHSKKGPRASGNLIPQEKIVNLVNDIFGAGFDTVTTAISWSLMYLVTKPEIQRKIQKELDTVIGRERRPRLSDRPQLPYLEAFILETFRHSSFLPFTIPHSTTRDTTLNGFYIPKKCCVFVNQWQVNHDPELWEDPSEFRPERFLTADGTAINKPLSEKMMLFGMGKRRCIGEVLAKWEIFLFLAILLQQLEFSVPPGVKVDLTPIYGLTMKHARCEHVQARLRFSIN

[5] = Half life in rat liver microsomes at 1 uM; type: ADME, Microsome
[6] = target: Voltage-gated inwardly rectifying potassium channel KCNH2 (Homo sapiens, UniProt Q12809); assay: Inhibition of human ERG by patch clamp method
[7] = target: CYP2C19 (Homo sapiens, UniProt P33261); assay: Inhibition of CYP2C19 (unknown origin) at 10 uM relative to control; type: ADME
[8] = Efflux ratio of apparent permeability in human Caco2 cells; type: ADME, cell-based; details: Caco-2
[9] = tested on: Medulloblastoma cell; assay: Antiproliferative activity against mouse Ptch+/- medulloblastoma cells assessed as inhibition of cell growth incubated for 36 hrs by CCK-8 assay; type: functional, cell-based
[10] = Half life in human liver microsomes at 1 uM; type: ADME, Microsome
[11] = tested on: U-251; assay: Cytotoxicity activity human U251 cells assessed as reduction of cell viability upto 1000 nM incubated for 48 hrs by CCK-8 assay; type: cell-based; details: u-251, 48 h
[12] = target: CYP3A4 (Homo sapiens, UniProt P08684); assay: Inhibition of CYP3A4 (unknown origin) at 10 uM relative to control; type: ADME
[13] = tested on: Protein smoothened (Homo sapiens), Q99835 [D473H]; assay: Antagonist activity at Smo D473H mutant receptor in mouse NIH/3T3 cells assessed as inhibition of Gli1 mRNA expression incubated for 48 hrs by qRT-PCR analysis; type: cell-based
[14] = Intrinsic clearance in human liver microsomes at 1 uM; type: ADME, Microsome; details: read-out: CLH
[15] = target: Protein smoothened (Mus musculus) (UniProt P56726); assay: Antagonist activity at Smo receptor in mouse NIH/3T3 cells assessed as inhibition of Gli1 mRNA expression incubated for 48 hrs by qRT-PCR analysis; type: cell-based
[16] = Intrinsic clearance in rat liver microsomes at 1 uM; type: ADME, Microsome; details: read-out: CLH
[17] = target: CYP2C9 (Homo sapiens, UniProt P11712); assay: Inhibition of CYP2C9 (unknown origin) at 10 uM relative to control; type: ADME
[18] = target: CYP2D6 (Homo sapiens, UniProt P10635); assay: Inhibition of CYP2D6 (unknown origin) at 10 uM relative to control; type: ADME
[19] = Apparent permeability from apical to basolateral side in human Caco2 cells; type: ADME, cell-based; details: Caco-2

Chain of Protein smoothened (Mus musculus, UniProt P56726) (P56726 whole entry): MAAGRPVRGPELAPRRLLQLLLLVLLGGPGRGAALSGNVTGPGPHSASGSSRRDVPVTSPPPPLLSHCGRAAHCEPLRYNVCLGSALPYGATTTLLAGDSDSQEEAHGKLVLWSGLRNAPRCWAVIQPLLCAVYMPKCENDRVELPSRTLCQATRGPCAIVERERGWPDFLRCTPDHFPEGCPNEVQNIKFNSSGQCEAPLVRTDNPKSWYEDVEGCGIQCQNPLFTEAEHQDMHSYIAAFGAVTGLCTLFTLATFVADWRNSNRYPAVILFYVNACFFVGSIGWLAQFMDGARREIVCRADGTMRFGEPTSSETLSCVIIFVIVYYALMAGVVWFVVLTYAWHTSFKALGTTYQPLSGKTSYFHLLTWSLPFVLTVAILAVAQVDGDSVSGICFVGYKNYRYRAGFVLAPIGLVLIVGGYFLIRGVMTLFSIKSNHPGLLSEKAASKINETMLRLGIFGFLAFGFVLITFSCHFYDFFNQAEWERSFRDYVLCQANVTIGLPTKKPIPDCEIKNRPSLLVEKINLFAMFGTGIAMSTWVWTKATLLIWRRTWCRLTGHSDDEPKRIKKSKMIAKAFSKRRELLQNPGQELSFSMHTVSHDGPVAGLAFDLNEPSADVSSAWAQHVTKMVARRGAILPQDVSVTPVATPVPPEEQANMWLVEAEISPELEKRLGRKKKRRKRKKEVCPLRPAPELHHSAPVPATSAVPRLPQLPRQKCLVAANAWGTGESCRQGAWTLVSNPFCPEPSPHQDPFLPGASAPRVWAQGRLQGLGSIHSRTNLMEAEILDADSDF
Chain of Protein smoothened (Homo sapiens), Q99835 [D473H] (Q99835 whole entry D473H): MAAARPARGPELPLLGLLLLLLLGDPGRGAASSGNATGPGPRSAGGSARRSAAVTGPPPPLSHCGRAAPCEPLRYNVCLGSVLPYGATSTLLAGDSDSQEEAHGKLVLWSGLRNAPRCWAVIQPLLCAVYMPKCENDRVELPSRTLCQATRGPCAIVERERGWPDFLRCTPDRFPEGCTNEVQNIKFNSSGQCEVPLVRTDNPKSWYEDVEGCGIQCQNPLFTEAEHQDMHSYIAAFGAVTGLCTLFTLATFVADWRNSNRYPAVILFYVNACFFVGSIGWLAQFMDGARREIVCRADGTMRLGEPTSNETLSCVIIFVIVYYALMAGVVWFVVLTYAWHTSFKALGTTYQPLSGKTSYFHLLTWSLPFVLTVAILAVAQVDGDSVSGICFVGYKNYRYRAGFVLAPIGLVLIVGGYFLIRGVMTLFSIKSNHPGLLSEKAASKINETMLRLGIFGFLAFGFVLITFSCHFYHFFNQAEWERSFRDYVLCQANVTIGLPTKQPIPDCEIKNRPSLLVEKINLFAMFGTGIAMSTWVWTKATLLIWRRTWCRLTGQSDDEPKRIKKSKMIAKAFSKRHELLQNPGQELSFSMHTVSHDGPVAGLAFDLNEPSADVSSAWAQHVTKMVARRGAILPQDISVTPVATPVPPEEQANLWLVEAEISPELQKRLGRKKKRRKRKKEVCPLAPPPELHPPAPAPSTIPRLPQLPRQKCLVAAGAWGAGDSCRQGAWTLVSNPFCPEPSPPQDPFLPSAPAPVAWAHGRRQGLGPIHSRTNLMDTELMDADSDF
Chain of Protein smoothened (Homo sapiens, UniProt Q99835) (Q99835 whole entry): as the sequence (Q99835 whole entry D473H) above, with H473D counted along it
Chain of CYP3A4 (P08684 whole entry): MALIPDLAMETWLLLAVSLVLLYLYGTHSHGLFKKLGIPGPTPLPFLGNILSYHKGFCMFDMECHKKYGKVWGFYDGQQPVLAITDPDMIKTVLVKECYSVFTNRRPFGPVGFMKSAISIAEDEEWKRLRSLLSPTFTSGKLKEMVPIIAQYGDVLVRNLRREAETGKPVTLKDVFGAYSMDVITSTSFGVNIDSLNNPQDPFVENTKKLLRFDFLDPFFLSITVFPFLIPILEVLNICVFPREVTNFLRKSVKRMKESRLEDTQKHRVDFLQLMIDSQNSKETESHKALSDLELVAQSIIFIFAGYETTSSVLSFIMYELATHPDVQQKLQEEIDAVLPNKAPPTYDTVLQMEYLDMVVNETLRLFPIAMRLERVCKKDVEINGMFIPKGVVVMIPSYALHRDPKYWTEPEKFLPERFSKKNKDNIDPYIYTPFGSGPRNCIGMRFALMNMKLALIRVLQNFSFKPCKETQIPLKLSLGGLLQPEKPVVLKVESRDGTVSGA
Chain of CYP2D6 (P10635 whole entry): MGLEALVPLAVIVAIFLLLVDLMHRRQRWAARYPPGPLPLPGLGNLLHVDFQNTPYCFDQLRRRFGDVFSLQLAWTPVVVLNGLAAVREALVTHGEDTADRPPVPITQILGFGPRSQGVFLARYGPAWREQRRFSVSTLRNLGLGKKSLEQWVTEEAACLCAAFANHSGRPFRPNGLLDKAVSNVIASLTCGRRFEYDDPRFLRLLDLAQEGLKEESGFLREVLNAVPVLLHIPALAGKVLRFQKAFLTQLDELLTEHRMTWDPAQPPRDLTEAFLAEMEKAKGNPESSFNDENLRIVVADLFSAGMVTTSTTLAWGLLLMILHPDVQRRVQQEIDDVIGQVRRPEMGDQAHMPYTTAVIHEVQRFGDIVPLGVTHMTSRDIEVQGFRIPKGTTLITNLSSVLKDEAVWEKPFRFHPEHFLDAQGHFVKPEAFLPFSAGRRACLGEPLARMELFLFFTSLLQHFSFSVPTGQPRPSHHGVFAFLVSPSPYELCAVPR
Chain of CYP2C9 (P11712 whole entry): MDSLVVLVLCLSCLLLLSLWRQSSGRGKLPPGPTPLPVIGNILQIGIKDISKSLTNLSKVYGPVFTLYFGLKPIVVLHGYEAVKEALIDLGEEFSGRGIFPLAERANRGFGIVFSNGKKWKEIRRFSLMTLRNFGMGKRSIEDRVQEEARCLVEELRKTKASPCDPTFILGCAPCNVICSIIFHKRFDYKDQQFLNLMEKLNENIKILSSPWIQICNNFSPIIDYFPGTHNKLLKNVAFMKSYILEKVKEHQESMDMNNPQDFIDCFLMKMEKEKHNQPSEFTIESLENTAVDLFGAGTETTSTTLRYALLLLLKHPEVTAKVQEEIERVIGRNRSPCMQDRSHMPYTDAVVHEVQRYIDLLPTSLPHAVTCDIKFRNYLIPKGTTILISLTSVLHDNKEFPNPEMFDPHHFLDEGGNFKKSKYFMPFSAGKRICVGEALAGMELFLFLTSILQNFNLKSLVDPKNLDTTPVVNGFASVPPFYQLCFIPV
Chain of CYP2C19 (P33261 whole entry): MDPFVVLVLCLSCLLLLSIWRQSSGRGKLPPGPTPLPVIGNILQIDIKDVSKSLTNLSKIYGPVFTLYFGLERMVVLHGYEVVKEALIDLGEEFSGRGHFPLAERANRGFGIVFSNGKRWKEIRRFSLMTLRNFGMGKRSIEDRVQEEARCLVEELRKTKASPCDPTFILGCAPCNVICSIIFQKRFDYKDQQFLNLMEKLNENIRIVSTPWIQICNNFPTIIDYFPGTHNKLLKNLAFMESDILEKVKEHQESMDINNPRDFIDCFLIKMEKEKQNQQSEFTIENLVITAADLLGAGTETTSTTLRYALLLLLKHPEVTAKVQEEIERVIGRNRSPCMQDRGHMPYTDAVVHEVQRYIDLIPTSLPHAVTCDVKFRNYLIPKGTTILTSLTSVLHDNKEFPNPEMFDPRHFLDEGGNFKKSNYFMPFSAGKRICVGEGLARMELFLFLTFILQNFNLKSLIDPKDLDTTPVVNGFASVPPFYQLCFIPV
Chain of Voltage-gated inwardly rectifying potassium channel KCNH2 (Q12809 whole entry): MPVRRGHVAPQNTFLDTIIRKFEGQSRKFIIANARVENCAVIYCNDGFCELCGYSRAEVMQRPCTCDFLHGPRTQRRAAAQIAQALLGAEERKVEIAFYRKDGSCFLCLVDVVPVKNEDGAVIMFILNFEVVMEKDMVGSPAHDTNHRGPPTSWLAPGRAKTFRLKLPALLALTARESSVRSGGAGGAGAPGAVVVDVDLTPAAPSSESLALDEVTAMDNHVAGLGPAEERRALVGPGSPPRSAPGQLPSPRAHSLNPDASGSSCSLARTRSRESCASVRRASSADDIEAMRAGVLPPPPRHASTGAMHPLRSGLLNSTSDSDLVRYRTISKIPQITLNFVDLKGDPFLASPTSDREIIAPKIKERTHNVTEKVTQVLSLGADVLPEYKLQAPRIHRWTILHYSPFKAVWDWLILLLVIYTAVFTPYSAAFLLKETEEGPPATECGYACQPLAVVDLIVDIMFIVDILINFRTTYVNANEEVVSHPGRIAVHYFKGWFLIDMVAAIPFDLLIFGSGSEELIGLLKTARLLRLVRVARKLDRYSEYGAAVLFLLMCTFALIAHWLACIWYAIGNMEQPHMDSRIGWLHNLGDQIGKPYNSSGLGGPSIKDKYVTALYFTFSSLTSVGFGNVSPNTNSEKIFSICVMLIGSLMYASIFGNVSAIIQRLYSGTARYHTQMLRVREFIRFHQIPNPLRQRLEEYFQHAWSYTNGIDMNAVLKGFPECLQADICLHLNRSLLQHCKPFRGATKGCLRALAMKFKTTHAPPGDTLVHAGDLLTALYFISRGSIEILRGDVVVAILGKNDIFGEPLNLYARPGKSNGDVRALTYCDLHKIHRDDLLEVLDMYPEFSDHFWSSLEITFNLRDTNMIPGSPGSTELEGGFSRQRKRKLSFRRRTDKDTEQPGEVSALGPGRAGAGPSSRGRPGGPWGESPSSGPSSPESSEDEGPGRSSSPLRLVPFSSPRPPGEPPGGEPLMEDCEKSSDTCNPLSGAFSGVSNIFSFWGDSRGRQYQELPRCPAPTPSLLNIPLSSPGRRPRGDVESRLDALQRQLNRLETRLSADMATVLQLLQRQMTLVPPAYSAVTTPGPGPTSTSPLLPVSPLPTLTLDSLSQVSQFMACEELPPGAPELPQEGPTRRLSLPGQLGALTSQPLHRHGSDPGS
Chain of Protein smoothened (Mus musculus) (P56726 whole entry): as the sequence (P56726 whole entry) above

Row | SMILES | pIC50 [1] | inhibition [2] | also measured
1 | Cc1ccc(NCc2ccnn2-c2nnc(N3CCC(C(=O)Nc4cccnc4C)CC3)s2)nc1 | 6.34 | Active | –
2 | Cc1cnc(NCc2ccnn2-c2nnc(N3CCC(C(=O)NC4CCCCC4C)CC3)s2)cn1 (configuration not stated) | 6.39 | Active | –
3 | CC1CCCCC1NC(=O)C1CCN(c2nnc(-n3nccc3CNc3cccnc3)s2)CC1 (configuration not stated) | 7.16 | Active | –
4 | CC1CCCCC1NC(=O)C1CCN(c2nnc(-n3cccn3)s2)CC1 (configuration not stated) | < 5.00 | – | –
5 | CC1CCCCC1NC(=O)C1CCN(c2nnc(-c3ccnn3C)s2)CC1 (configuration not stated) | < 5.00 | – | –
6 | Cc1ccc(NCc2ccnn2-c2nnc(N3CCC(C(=O)NC4CCCCC4C)CC3)s2)cn1 (configuration not stated) | 7.29 | Active | –
7 | Cc1ccc(NCc2ccnn2-c2nnc(N3CCC(C(=O)Nc4ncccc4C)CC3)s2)nc1 | 6.55 | Active | –
8 | Cc1ccc(NCc2ccnn2-c2nnc(N3CCC(C(=O)NC4CCCCC4C)CC3)s2)nc1 (racemic) | 8.15 | Active | pIC50 [3]: 8.41
9 | Cc1ccc(NCc2c(-c3nnc(N4CCC(C(=O)NC5CCCCC5C)CC4)s3)cnn2C)nc1 (configuration not stated) | 5.74 | Active | –
10 | C[C@@H]1CN(c2nnc(Cc3ccccc3)s2)CCN1c1cnc(C(C)(C)O)cn1 | < 5.00 | – | –
11 | Cc1ccc(NCc2ccnn2-c2nnc(N3CCC(C(=O)N[C@@H]4CCCC[C@@H]4C)CC3)s2)nc1 | 8.08 | Active | –
12 | Cc1ccc(NCc2ccccc2-c2nnc(N3CCC(C(=O)NC4CCCCC4C)CC3)s2)nc1 (configuration not stated) | 6.54 | Active | –
13 | Cc1cc(C)n(-c2nnc(N3CCC(C(=O)NC4CCCCC4C)CC3)s2)n1 (configuration not stated) | < 5.00 | – | –
14 | CS(=O)(=O)c1ccc(C(=O)Nc2ccc(Cl)c(-c3ccccn3)c2)c(Cl)c1 [VISMODEGIB] | – | – | pIC50 [9]: 8.33; Activity [11]: Non-Toxic; inhibition [13]: inactive

Continued, in another order:

Row | pIC50 [1] | SMILES | inhibition [2] | also measured
15 | 7.24 | Cc1ccc(CCc2ccnn2-c2nnc(N3CCC(C(=O)NC4CCCCC4C)CC3)s2)nc1 (configuration not stated) | Active | –
16 | < 5.00 | CN(C(=O)c1ccc(F)cc1C(F)(F)F)C1CCN(c2nnc(-c3ccnn3C)s2)CC1 | – | –
17 | 6.66 | Cc1ccc(NCc2ccnn2-c2nnc(N3CCC(C(=O)Nc4ccncc4C)CC3)s2)nc1 | Active | –
18 | 7.09 | Cc1ccc(NCc2ccnn2-c2nnc(N3CCC(C(=O)NC4CCCCC4C)CC3)s2)nn1 (configuration not stated) | Active | –
19 | 6.74 | Cc1cnc(NCc2ccnn2-c2nnc(N3CCC(C(=O)NC4CCCCC4C)CC3)s2)nc1 (configuration not stated) | Active | –
20 | 7.34 | Cc1ccc(NCc2ccnn2-c2nnc(N3CCC(C(=O)NC4CCCCC4C)CC3)s2)cc1 (configuration not stated) | Active | pIC50 [3]: 7.74
21 | 7.38 | Cc1ccc(OCc2ccnn2-c2nnc(N3CCC(C(=O)NC4CCCCC4C)CC3)s2)nc1 (configuration not stated) | Active | –
22 | 6.26 | Cc1ccc(NCc2ccnn2-c2nnc(N3CCC(C(=O)Nc4cnccc4C)CC3)s2)nc1 | Active | –
23 | 6.85 | Cc1ccc(NCc2ccnn2-c2nnc(N3CCC(C(=O)Nc4ccccc4C)CC3)s2)nc1 | Active | –
24 | 8.15 | Cc1ccc(NCc2ccnn2-c2nnc(N3CCC(C(=O)N[C@H]4CCCC[C@H]4C)CC3)s2)nc1 | Active | inhibition at 10 µM [4]: -4%; half-life at 1 µM [5]: 78 s; pIC50 [6]: < 4.52; inhibition at 10 µM [7]: 7.1%; efflux ratio [8]: 1.03; pIC50 [9]: 9.30; half-life at 1 µM [10]: 38.4 s; Activity [11]: Non-Toxic; inhibition at 10 µM [12]: 72%; inhibition [13]: Active; CLint scaled at 1 µM [14]: 2700 mL/min/kg; inhibition [15]: Active; CLint scaled at 1 µM [16]: 2000 mL/min/kg; inhibition at 10 µM [17]: 26%; inhibition at 10 µM [18]: 59%; Papp A→B [19]: 23 ×10⁻⁶ cm/s
25 | 7.74 | CC1CCCCC1NC(=O)C1CCN(c2nnc(-n3nccc3CNc3ccccn3)s2)CC1 (configuration not stated) | Active | –
26 | 5.43 | CC(O)c1ccnn1-c1nnc(N2CCC(C(=O)NC3CCCCC3C)CC2)s1 (configuration not stated) | Active | –
27 | < 5.00 | CC1CCCCC1NC(=O)C1CCN(c2nnc(-n3nccc3CO)s2)CC1 (configuration not stated) | – | –
